Here are results for seven compounds from ChEMBL document CHEMBL1134298, “An orally active, water-soluble neurokinin-1 receptor antagonist suitable for both intravenous and oral clinical administration” (J Med Chem, 2001).

In test [1] the test system is Gerbillinae. Put plainly: Inhibition of GR-73632-induced Gerbil foot tapping after immediate pretreatment iv. The class given is functional. Conditions: read-out: ID50 (the source's name).
For another test, the target named is Substance-P receptor (Homo sapiens, UniProt P25103). The experiment in a line: In vitro inhibition of binding of [125I]-substance P to tachykinin receptor 1.
Test [2] has as its system Gerbillinae. Put plainly: Inhibition of GR-73632-induced Gerbil foot tapping after 24 hr pretreatment iv. The conditions noted are these: read-out: ID50 (the source's name). The class given is functional.

Sequence of Substance-P receptor (P25103 whole entry): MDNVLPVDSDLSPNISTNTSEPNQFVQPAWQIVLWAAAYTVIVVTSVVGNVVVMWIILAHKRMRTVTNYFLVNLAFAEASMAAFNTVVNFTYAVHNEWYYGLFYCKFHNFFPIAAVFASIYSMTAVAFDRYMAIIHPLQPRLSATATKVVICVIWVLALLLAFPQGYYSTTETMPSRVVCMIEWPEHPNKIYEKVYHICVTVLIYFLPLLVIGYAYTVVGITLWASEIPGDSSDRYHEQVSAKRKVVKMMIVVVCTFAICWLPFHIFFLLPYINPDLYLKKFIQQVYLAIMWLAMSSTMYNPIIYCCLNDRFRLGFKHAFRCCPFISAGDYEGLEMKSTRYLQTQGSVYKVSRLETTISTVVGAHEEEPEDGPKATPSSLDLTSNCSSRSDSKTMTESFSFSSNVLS

In general, IC50 refers to the concentration that inhibits the measured activity by half. Regarding `CNCc1nn[nH]c1CN1CCOC(O[C@H](C)c2cc(C(F)(F)F)cc(C(F)(F)F)c2)[C@@H]1c1ccc(F)cc1` (stereo not given in full), the ED50 in the test with Gerbillinae [1] was 3.1 mg/kg. The same compound returned an IC50 at Substance-P receptor of 290 pM.

With `C[C@@H](OC1OCCN(Cc2n[nH]nc2CN2CCC2)[C@H]1c1ccc(F)cc1)c1cc(C(F)(F)F)cc(C(F)(F)F)c1` (stereo not given in full), the ED50 in the test on Gerbillinae [1] came to 0.4 mg/kg. Also, the IC50 at Substance-P receptor came out at 190 pM.

`C[C@@H](O[C@H]1OCCN(Cc2nn[nH]c2CN)[C@H]1c1ccc(F)cc1)c1cc(C(F)(F)F)cc(C(F)(F)F)c1`: the ED50 in the test with Gerbillinae [1] is 5.3 mg/kg. For the same compound, the IC50 at Substance-P receptor came to 250 pM.

`CC(C)N(Cc1[nH]nnc1CN1CCO[C@H](O[C@H](C)c2cc(C(F)(F)F)cc(C(F)(F)F)c2)[C@@H]1c1ccc(F)cc1)C(C)C`: the ED50 in the test on Gerbillinae [1] was found to be 1 mg/kg. The compound further came in with an IC50 at Substance-P receptor of 350 pM.

As for `C[C@@H](O[C@H]1OCCN(Cc2nn[nH]c2CN2CCCC2)[C@H]1c1ccc(F)cc1)c1cc(C(F)(F)F)cc(C(F)(F)F)c1`, the ED50 in the test with Gerbillinae [1] turned out to be 0.4 mg/kg. For the same compound, the IC50 on Substance-P receptor was determined as 210 pM.

Turning to `C[C@@H](OC1OCCN(Cc2n[nH]nc2CN(C)C)[C@H]1c1ccc(F)cc1)c1cc(C(F)(F)F)cc(C(F)(F)F)c1.Cl` (stereo not given in full), the ED50 was found to be 0.3 mg/kg in the test on Gerbillinae [2] and 0.2 mg/kg with Gerbillinae [1]. The IC50 at Substance-P receptor came to 190 pM.

Consider `C[C@@H](O[C@H]1OCCN(Cc2n[nH]c(=O)[nH]2)[C@H]1c1ccc(F)cc1)c1cc(C(F)(F)F)cc(C(F)(F)F)c1` [APREPITANT], for which the ED50 turned out to be 0.3 mg/kg in the test on Gerbillinae [2] and 0.4 mg/kg with Gerbillinae [1].
